Blank lines part the entries; values can stand above or below the molecule they belong to.
System: 883617-216-R-J1-PDC tumor spheroids, viability
Test: Anticancer human tumor 883617-216-R-J1-PDC patient-derived bladder carcinoma cell line growth inhibition [PI3K]
Settings: spheroids with HUVEC and MSC; for viability, T/C: stronger effect = lower value
Summary of the method: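 Agents were dosed from a top concentration near clinical Cmax (otherwise 10 microM) in half-log decrements, alone or combined with PI3K inhibitors. The spheroids contain tumor cells plus endothelial (HUVEC) and MSC stroma; viability is measured.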

[1] = curve of first compound, second compound 0.0316 µM
[2] = curve of first compound, second compound 0.1 µM
[3] = curve of first compound, second compound 0.316 µM
[4] = curve of first compound, second compound 1 µM
[5] = curve of first compound, second compound 3.16 µM
[6] = curve of first compound, second compound 10 µM
[7] = second compound 0.0316 µM, first compound 0.0316 µM
[8] = second compound 0.0316 µM, first compound 0.1 µM
[9] = second compound 0.0316 µM, first compound 0.316 µM
[10] = second compound 0.0316 µM, first compound 1 µM
[11] = second compound 0.0316 µM, first compound 3.16 µM
[12] = second compound 0.0316 µM, first compound 10 µM
[13] = second compound 0.1 µM, first compound 0.0316 µM
[14] = second compound 0.1 µM, first compound 0.1 µM
[15] = second compound 0.1 µM, first compound 0.316 µM
[16] = second compound 0.1 µM, first compound 1 µM
[17] = second compound 0.1 µM, first compound 3.16 µM
[18] = second compound 0.1 µM, first compound 10 µM
[19] = second compound 0.316 µM, first compound 0.0316 µM
[20] = second compound 0.316 µM, first compound 0.1 µM
[21] = second compound 0.316 µM, first compound 0.316 µM
[22] = second compound 0.316 µM, first compound 1 µM
[23] = second compound 0.316 µM, first compound 3.16 µM
[24] = second compound 0.316 µM, first compound 10 µM
[25] = second compound 1 µM, first compound 0.0316 µM
[26] = second compound 1 µM, first compound 0.1 µM
[27] = second compound 1 µM, first compound 0.316 µM
[28] = second compound 1 µM, first compound 1 µM
[29] = second compound 1 µM, first compound 3.16 µM
[30] = second compound 1 µM, first compound 10 µM
[31] = second compound 3.16 µM, first compound 0.0316 µM
[32] = second compound 3.16 µM, first compound 0.1 µM
[33] = second compound 3.16 µM, first compound 0.316 µM
[34] = second compound 3.16 µM, first compound 1 µM
[35] = second compound 3.16 µM, first compound 3.16 µM
[36] = second compound 3.16 µM, first compound 10 µM
[37] = second compound 10 µM, first compound 0.0316 µM
[38] = second compound 10 µM, first compound 0.1 µM
[39] = second compound 10 µM, first compound 0.316 µM
[40] = second compound 10 µM, first compound 1 µM
[41] = second compound 10 µM, first compound 3.16 µM
[42] = second compound 10 µM, first compound 10 µM
[43] = curve of first compound, second compound 0.00316 µM
[44] = curve of first compound, second compound 0.01 µM
[45] = second compound 0.00316 µM, first compound 0.0316 µM
[46] = second compound 0.00316 µM, first compound 0.1 µM
[47] = second compound 0.00316 µM, first compound 0.316 µM
[48] = second compound 0.00316 µM, first compound 1 µM
[49] = second compound 0.00316 µM, first compound 3.16 µM
[50] = second compound 0.00316 µM, first compound 10 µM
[51] = second compound 0.01 µM, first compound 0.0316 µM
[52] = second compound 0.01 µM, first compound 0.1 µM
[53] = second compound 0.01 µM, first compound 0.316 µM
[54] = second compound 0.01 µM, first compound 1 µM
[55] = second compound 0.01 µM, first compound 3.16 µM
[56] = second compound 0.01 µM, first compound 10 µM
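Note: spheroids exposed to agents for 7 days before the viability read.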

Compound: CC(C)NCC(C(=O)N1CCN(c2ncnc3c2C(C)CC3O)CC1)c1ccc(Cl)cc1 (stereo not given) + CC(Nc1ncnc2nc[nH]c12)c1cc2cccc(Cl)c2c(=O)n1-c1ccccc1
IC50 [1]: 520 nM | IC50 [2]: 556 nM | IC50 [3]: 492 nM | IC50 [4]: 513 nM | IC50 [5]: 345 nM | IC50 [6]: < 31.6 nM | viability, T/C [7]: 87.6% | viability, T/C [8]: 84.8% | viability, T/C [9]: 55% | viability, T/C [10]: 39.7% | viability, T/C [11]: 17.8% | viability, T/C [12]: 9.17% | viability, T/C [13]: 78.2% | viability, T/C [14]: 76% | viability, T/C [15]: 59.9% | viability, T/C [16]: 38.7% | viability, T/C [17]: 18.9% | viability, T/C [18]: 8.02% | viability, T/C [19]: 97.8% | viability, T/C [20]: 78.8% | viability, T/C [21]: 60.9% | viability, T/C [22]: 35.4% | viability, T/C [23]: 17.8% | viability, T/C [24]: 8.48% | viability, T/C [25]: 69.1% | viability, T/C [26]: 81.1% | viability, T/C [27]: 52.4% | viability, T/C [28]: 40% | viability, T/C [29]: 17.1% | viability, T/C [30]: 6.81% | viability, T/C [31]: 64% | viability, T/C [32]: 53.8% | viability, T/C [33]: 55.2% | viability, T/C [34]: 28.8% | viability, T/C [35]: 16.5% | viability, T/C [36]: 7.2% | viability, T/C [37]: 49.6% | viability, T/C [38]: 42.7% | viability, T/C [39]: 38.7% | viability, T/C [40]: 25.4% | viability, T/C [41]: 13.1% | viability, T/C [42]: 6.37%

Compound: C[C@@H](NC(=O)c1ncnc(N)c1Cl)c1ncc(C(=O)Nc2cc(C(F)(F)F)c(Cl)cn2)s1 + Cc1nc(NC(=O)N2CCCC2C(N)=O)sc1-c1ccnc(C(C)(C)C(F)(F)F)c1
IC50 [1]: > 10000 nM | IC50 [2]: > 10000 nM | IC50 [3]: 2000 nM | IC50 [4]: < 31.6 nM | IC50 [5]: < 31.6 nM | IC50 [6]: < 31.6 nM | viability, T/C [7]: 89.3% | viability, T/C [8]: 91.5% | viability, T/C [9]: 94.9% | viability, T/C [10]: 85.2% | viability, T/C [11]: 82.1% | viability, T/C [12]: 58% | viability, T/C [13]: 69% | viability, T/C [14]: 74.2% | viability, T/C [15]: 73.3% | viability, T/C [16]: 73% | viability, T/C [17]: 75.1% | viability, T/C [18]: 57.7% | viability, T/C [19]: 48.3% | viability, T/C [20]: 52.6% | viability, T/C [21]: 49.7% | viability, T/C [22]: 53.8% | viability, T/C [23]: 48.8% | viability, T/C [24]: 37.9% | viability, T/C [25]: 29.6% | viability, T/C [26]: 33.4% | viability, T/C [27]: 29.2% | viability, T/C [28]: 33% | viability, T/C [29]: 24.9% | viability, T/C [30]: 24.4% | viability, T/C [31]: 15.3% | viability, T/C [32]: 14.3% | viability, T/C [33]: 16.9% | viability, T/C [34]: 15.7% | viability, T/C [35]: 16.6% | viability, T/C [36]: 12.1% | viability, T/C [37]: 9.78% | viability, T/C [38]: 8.18% | viability, T/C [39]: 11.9% | viability, T/C [40]: 8.65% | viability, T/C [41]: 7.27% | viability, T/C [42]: 3.76%

Compound: CC(C)NCC(C(=O)N1CCN(c2ncnc3c2C(C)CC3O)CC1)c1ccc(Cl)cc1 (stereo not given)
viability, T/C (compound 0.0316 µM): 93.7% [middle of 4 runs] | viability, T/C (compound 0.1 µM): 77.3% [middle of 4 runs] | viability, T/C (compound 0.316 µM): 68.3% [middle of 4 runs] | viability, T/C (compound 1 µM): 40.5% [middle of 4 runs] | viability, T/C (compound 3.16 µM): 17.1% [middle of 4 runs] | viability, T/C (compound 10 µM): 7.67% [middle of 4 runs] | IC50 (curve of compound): 591 nM [middle of 4 runs]

Second part, led by results:

IC50 [43]: 473 nM | IC50 [44]: 241 nM | IC50 [1]: < 31.6 nM | IC50 [2]: < 31.6 nM | IC50 [3]: < 31.6 nM | IC50 [4]: < 31.6 nM
Compound: Cn1ncc(Cl)c1-c1cc(C(=O)NC(CN)Cc2cccc(F)c2)sc1Cl (stereo not given) + COc1c(OCCCN2CCOCC2)ccc2c3n(c(=NC(=O)c4cnc(N)nc4)nc12)CCN3
viability, T/C [45]: 83.1% | viability, T/C [46]: 85.4% | viability, T/C [47]: 59% | viability, T/C [48]: 29.6% | viability, T/C [49]: 13.9% | viability, T/C [50]: 5.61% | viability, T/C [51]: 66% | viability, T/C [52]: 61.6% | viability, T/C [53]: 45.4% | viability, T/C [54]: 28.1% | viability, T/C [55]: 10% | viability, T/C [56]: 4.83% | viability, T/C [7]: 33.8% | viability, T/C [8]: 34.7% | viability, T/C [9]: 33.2% | viability, T/C [10]: 15.1% | viability, T/C [11]: 8.09% | viability, T/C [12]: 3.75% | viability, T/C [13]: 17.8% | viability, T/C [14]: 12.7% | viability, T/C [15]: 10.8% | viability, T/C [16]: 8.94% | viability, T/C [17]: 5.15% | viability, T/C [18]: 2.08% | viability, T/C [19]: 6.38% | viability, T/C [20]: 4.23% | viability, T/C [21]: 5.38% | viability, T/C [22]: 5.78% | viability, T/C [23]: 2.33% | viability, T/C [24]: 1.23% | viability, T/C [25]: 3.15% | viability, T/C [26]: 3.32% | viability, T/C [27]: 2.66% | viability, T/C [28]: 2.93% | viability, T/C [29]: 2.39% | viability, T/C [30]: 0.58%

IC50 [43]: > 10000 nM | IC50 [44]: > 10000 nM | IC50 [1]: < 31.6 nM | IC50 [2]: < 31.6 nM | IC50 [3]: < 31.6 nM | IC50 [4]: < 31.6 nM
Compound: CC(Cn1ccc(-c2ccc(C#N)c(Cl)c2)n1)NC(=O)c1cc(C(C)O)[nH]n1 (stereo not given) + COc1c(OCCCN2CCOCC2)ccc2c3n(c(=NC(=O)c4cnc(N)nc4)nc12)CCN3
viability, T/C [45]: 74.1% | viability, T/C [46]: 75.2% | viability, T/C [47]: 83.8% | viability, T/C [48]: 96.2% | viability, T/C [49]: 83.8% | viability, T/C [50]: 79.3% | viability, T/C [51]: 68.8% | viability, T/C [52]: 70.4% | viability, T/C [53]: 70.3% | viability, T/C [54]: 65.6% | viability, T/C [55]: 65.7% | viability, T/C [56]: 64.2% | viability, T/C [7]: 31.1% | viability, T/C [8]: 33% | viability, T/C [9]: 37.3% | viability, T/C [10]: 29.4% | viability, T/C [11]: 35.7% | viability, T/C [12]: 30.2% | viability, T/C [13]: 14.9% | viability, T/C [14]: 11% | viability, T/C [15]: 14.6% | viability, T/C [16]: 19% | viability, T/C [17]: 13.3% | viability, T/C [18]: 11.6% | viability, T/C [19]: 5.01% | viability, T/C [20]: 4.53% | viability, T/C [21]: 4.26% | viability, T/C [22]: 4.08% | viability, T/C [23]: 5.69% | viability, T/C [24]: 4.16% | viability, T/C [25]: 3.17% | viability, T/C [26]: 2.54% | viability, T/C [27]: 3.2% | viability, T/C [28]: 3.42% | viability, T/C [29]: 4.42% | viability, T/C [30]: 4.01%
